Values quoted from earlier work, collected in patent US10668050B2, “Compositions, methods and kits for treating diarrhea-predominant irritable bowel syndrome” (RedHill Biopharma Ltd., priority 2014, dated 2020).
Where a name gives a salt, the structure may show the parent alone.

Tests used:
[1] = scale of Pliska et al., J. Chromatog. 216, 79, 1981

Cc1nccn1CC1CCc2c(c3ccccc3n2C)C1=O (racemic) [Ondansetron HCl dihydrate, Ondansetron hydrochloride]
solubility: soluble in water and normal saline

N[C@@H](CC(=O)O)C(=O)O [aspartic acid]
hydropathy value (relative hydrophobic character) [1]: −2.15

CC[C@H](C)[C@H](N)C(=O)O [iso-leucine]
hydropathy value (relative hydrophobic character) [1]: 1.83

NCC(=O)O [glycine]
hydropathy value (relative hydrophobic character) [1]: 0
